{"source": "patent US4130647A", "about": "“Methods for treating congestive heart failure and ischemic heart disease” (priority 1977, dated 1978)", "key": {"[1]": {"test_system": "patients with chronic left sided congestive heart failure", "experiment": "Improvement of symptoms and roentgenographic pulmonary venous congestion, trimazosin (Example 3)", "assay_type": "in vivo, human", "from_the_text": "After baseline measurements, all 16 patients received one capsule of single-blind placebo three times daily for two weeks. The patients then received in a double-blind, randomized study trimazosin or placebo for six weeks. Eight patients received one placebo capsule three times daily for weeks one and two, two placebo capsules three times daily for weeks three and four, and three placebo capsules three times daily for weeks five and six of the double-blind period. Seven patients received one 50 mg. trimazosin capsule three times daily for weeks one and two, two 50 mg. trimazosin capsules three times daily for weeks three and four, and three 50 mg. trimazosin capsules three times daily for weeks five and six of the double-blind period. One patient (patient number five on trimazosin) received one 50 mg. trimazosin capsule three times daily for 32 days. Their trimazosin dose was not increased after two weeks of this dose because their standing systolic blood pressure was 104/70 mm. Hg.\nThe patients were seen by one of the investigators, questioned for symptoms, and given a physical examination in the baseline period, at the end of two weeks of single-blind placebo, and at the end of weeks one, two, three, four, five, and six on double-blind medication. […]\nThe data listed in Tables 1-4 were analyzed using Student's t test for independent means. […]"}, "[2]": {"test_system": "patients with chronic left sided congestive heart failure", "experiment": "Adverse effects of trimazosin (Example 3)", "assay_type": "in vivo, human", "procedure": "The patients then received in a double-blind, randomized study trimazosin or placebo for six weeks. Eight patients received one placebo capsule three times daily for weeks one and two, two placebo capsules three times daily for weeks three and four, and three placebo capsules three times daily for weeks five and six of the double-blind period. Seven patients received one 50 mg. trimazosin capsule three times daily for weeks one and two, two 50 mg. trimazosin capsules three times daily for weeks three and four, and three 50 mg. trimazosin capsules three times daily for weeks five and six of the double-blind period. One patient (patient number five on trimazosin) received one 50 mg. trimazosin capsule three times daily for 32 days. […] The patients were seen by one of the investigators, questioned for symptoms, and given a physical examination in the baseline period, at the end of two weeks of single-blind placebo, and at the end of weeks one, two, three, four, five, and six on double-blind medication. A standard 12-lead electrocardiogram and PA and lateral chest roentgenograms were taken in the baseline period, at the end of two weeks of single-blind placebo, and at the end of three weeks and six weeks on double-blind medication."}}}
{"smiles": "COc1cc2c(N)nc(N3CCN(C(=O)OCC(C)(C)O)CC3)nc2c(OC)c1OC", "note": "[trimazosin, 2-hydroxy-2-methylpropyl 4-(4-amino-6,7,8-trimethoxy-2-quinazolinyl)-1-piperazinecarboxylate]", "values": [{"measurement": "disappearance of pulmonary venous congestion on chest roentgenogram", "setting": "[1]; vs. none of eight on placebo, p=0.038", "value": "Four of the eight patients"}, {"measurement": "good or excellent improvement in symptoms", "setting": "[1]; vs. one of eight on placebo, p=0.020", "value": "Six of the eight patients"}, {"measurement": "adverse effects attributed to medication", "setting": "[2]; 16 patients (trimazosin or placebo)", "value": "No adverse effects attributed to medication occurred in any of the 16 patients"}, {"measurement": "adverse effects such as systemic lupus erythematosus", "setting": "[2]; in vivo", "value": "has not been associated with adverse effects such as systemic lupus erythematosus"}, {"measurement": "reflex tachycardia", "setting": "[2]; in vivo", "value": "does not produce a reflex tachycardia"}, {"measurement": "event in patient number five", "setting": "[2]; thirty-second day of trimazosin therapy", "value": "acute myocardial infarction with ventricular fibrillation"}, {"measurement": "side effects", "setting": "[2]; trimazosin 450 mg. daily", "value": "without occurrence of any side effects"}]}
